Values quoted from earlier work as cited in patent US9468597B1, “Stabilized L-ascorbic acid skin serum” (Dr. Perry Skindustries, LLC, priority 2013, dated 2016).

Key:
skin = details: 18% or 10% concentration placed under a patch for 4 days
[1] = without exposure to light

## O=C1O[C@H]([C@@H](O)CO)C(O)=C1O [vitamin C, L-ascorbic acid]
skin
  skin irritation: Neither an 18% nor a 10% concentration irritated the skin
[1]
  half-life: about 4 day
